According to US20100003246A1, “Novel heterocyclic compounds and uses therof” (priority 2008, published 2010):

Biological target: T1, b-Raf(V600E) (Homo sapiens, UniProt P15056, V600E)
T1 construct: made in house
Assay: Raf/Mek Amplified Luminescence Proximity Homogeneous Assay (Alpha Screen), b-Raf(V600E)
Format: biochemical
Details: mutant b-Raf(V600E), read-out: mut-b-RAF (IC50 in uM)
Protocol: Assay buffer: 50 mM Tris, pH 7.5, 15 mM MgCl2, 0.01% BSA, 1 mM DTT Stop buffer: 60 mM EDTA, 0.01% Tween20 Bead buffer: 50 mM Tris, pH 7.5, 0.01% Tween20
b-Raf(V600E), active: Recombinant in-house material biotinylated Mek, kinase dead: Recombinant in-house material Alpha Screen detection kit PerkinElmer, #6760617R Anti phospho-MEK½ Cell signaling #9121 384 well assay plates: White Greiner plates, #781207
b-Raf(V600E) approximately 4 pM c-Raf approximately 4 nM biotinylated Mek, Kinase dead approximately 10 nM
Pre-incubation time with compounds 60 min at room temperature Reaction time 1 or 3 hours at room temperature
Raf and biotinylated Mek, kinase dead, were combined at 2× final concentrations in assay buffer (50 mM Tris, pH 7.5, 15 mM MgCl2, 0.01% BSA and 1 mM DTT) and dispensed 10 μl per well in assay plates (Greiner white 384 well assay plates #781207) containing 0.5 μl of 40× of a raf kinase inhibitor test compound diluted in 100% DMSO. The plate was incubated for 60 min at room temperature.
The Raf kinase activity reaction was started by the addition of 10 μl per well of 2×ATP diluted in assay buffer. After 3 hours (bRaf(V600E)) or 1 hour (c-Raf), the reactions were stopped with the addition of 10 μl of stop reagent (60 mM EDTA). Phosphorylated product was measured using a rabbit anti-p-MEK (Cell Signaling, #9121) antibody and the Alpha Screen IgG (Protein A) detection Kit (PerkinElmer #6760617R), by the addition of 30 μL to the well of a mixture of the antibody (1:2000 dilution) and detection beads (1:2000 dilution of both beads) in bead buffer (50 mM Tris, pH 7.5, 0.01% Tween20). The additions were carried out under dark conditions to protect the detection beads from light. A lid was placed on top of the plate and incubated for 1 hour at room temperature, then the luminescence was read on a PerkinElmer Envision instrument. The concentration of each compound for 50% inhibition (IC50) was calculated by non-linear regression using XL Fit data analysis software.
The Raf/Mek Amplified Luminescence Proximity Homogeneous Assay described was used to generate the luminescence and mutant b-Raf(V600E) IC50 data for selected Raf Kinase Inhibitors shown in Table 1 above.

T1 sequence (P15056 whole entry V600E): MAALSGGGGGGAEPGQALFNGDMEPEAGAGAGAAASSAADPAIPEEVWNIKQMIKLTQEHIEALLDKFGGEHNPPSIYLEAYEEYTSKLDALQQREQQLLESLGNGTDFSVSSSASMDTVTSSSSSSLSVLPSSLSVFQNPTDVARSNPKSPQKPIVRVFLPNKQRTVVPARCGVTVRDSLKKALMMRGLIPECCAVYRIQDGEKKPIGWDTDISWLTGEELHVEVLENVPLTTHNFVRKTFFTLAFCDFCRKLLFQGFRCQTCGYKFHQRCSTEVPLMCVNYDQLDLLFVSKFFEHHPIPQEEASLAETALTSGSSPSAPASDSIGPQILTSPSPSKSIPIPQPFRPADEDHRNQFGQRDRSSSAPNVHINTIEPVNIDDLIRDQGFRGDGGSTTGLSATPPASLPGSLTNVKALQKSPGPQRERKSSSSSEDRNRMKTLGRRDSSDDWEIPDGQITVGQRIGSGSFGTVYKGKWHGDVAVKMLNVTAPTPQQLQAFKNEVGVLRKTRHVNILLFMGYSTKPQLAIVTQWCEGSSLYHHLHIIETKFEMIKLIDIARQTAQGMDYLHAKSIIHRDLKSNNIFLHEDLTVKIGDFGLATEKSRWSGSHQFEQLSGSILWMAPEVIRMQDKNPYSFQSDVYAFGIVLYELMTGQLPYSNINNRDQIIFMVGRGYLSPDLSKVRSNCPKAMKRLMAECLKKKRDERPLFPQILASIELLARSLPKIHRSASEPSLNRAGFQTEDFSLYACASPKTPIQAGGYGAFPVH

Row | Compound | IC50 [µM]
1 | COc1cc(-c2[nH]c(-c3ccc(F)cc3)nc2-c2cn[nH]c2)cnc1N [Compound 96, 5-(2-(4-fluorophenyl)-4-(1H-pyrazol-4-yl)-1H-imidazol-5-yl)-3-methoxypyridin-2-amine] | 0.0321
2 | COCC(=O)N1CCC[C@@H](Nc2nccc(-c3nc(-c4ccc(C(F)(F)F)cc4)[nH]c3-c3cnc(N)c(OC)c3)n2)C1 [Compound 97, (R)-1-(3-(4-(5-(6-amino-5-methoxypyridin-3-yl)-2-(4-(trifluoromethyl)phenyl)-1H-imidazol-4-yl)pyrimidin-2-ylamino)piperidin-1-yl)-2-methoxyethanone] | 0.031
3 | COc1cc(-c2[nH]c(-c3ccc(F)cc3)nc2-c2ccnc(NCCNS(=O)(=O)C3CC3)n2)cnc1N [Compound 98, N-(2-(4-(5-(6-amino-5-methoxypyridin-3-yl)-2-(4-fluorophenyl)-1H-imidazol-4-yl)pyrimidin-2-ylamino)ethyl)cyclopro-panesulfonamide] | 0.0001
4 | COc1cc(-c2[nH]c(-c3ccccc3)nc2-c2ccnc(NCCNS(C)(=O)=O)n2)cnc1N [Compound 99, N-(2-(4-(5-(6-amino-5-methoxypyridin-3-yl)-2-phenyl-1H-imidazol-4-yl)pyrimidin-2-ylamino)ethyl)methanesul-fonamide] | 0.0001
5 | COCC(=O)N1CCC[C@@H](Nc2nccc(-c3nc(-c4ccc(F)cc4)[nH]c3-c3cnc(N)c(OC)c3)n2)C1 [Compound 100, (R)-1-(3-(4-(5-(6-amino-5-methoxypyridin-3-yl)-2-(4-fluorophenyl)-1H-imidazol-4-yl)pyrimidin-2-ylamino)piperidin-1-yl)-2-methoxyethanone] | 0.0259
6 | COC(=O)c1cccc(-c2nc(-c3ccncc3)c(-c3cnc(N)c(OC)c3)[nH]2)c1 [Compound 101, methyl 3-(5-(6-amino-5-methoxypyridin-3-yl)-4-(pyridin-4-yl)-1H-imidazol-2-yl)benzoate] | 0.0013
7 | COc1cc(-c2[nH]c(-c3cccc(C#N)c3)nc2-c2ccncc2)cnc1N [Compound 102, 3-(5-(6-amino-5-methoxypyridin-3-yl)-4-(pyridin-4-yl)-1H-imidazol-2-yl)benzonitrile] | 0.0011
8 | COC(=O)c1ccc(-c2nc(-c3ccncc3)c(-c3cnc(N)c(OC)c3)[nH]2)cc1 [Compound 103, methyl 4-(5-(6-amino-5-methoxypyridin-3-yl)-4-(pyridin-4-yl)-1H-imidazol-2-yl)benzoate] | 0.0007
9 | COc1cc(-c2[nH]c(-c3ccc(C#N)cc3)nc2-c2ccncc2)cnc1N [Compound 104, 4-(5-(6-amino-5-methoxypyridin-3-yl)-4-(pyridin-4-yl)-1H-imidazol-2-yl)benzonitrile] | 0.0014
10 | CCc1cc(-c2[nH]c(-c3ccc(F)cc3)nc2-c2ccncc2)cnc1N [Compound 105, 3-ethyl-5-(2-(4-fluorophenyl)-4-(pyridin-4-yl)-1H-imidazol-5-yl)pyridin-2-amine] | 0.215
11 | COc1ccc(-c2nc(-c3ccncc3)c(-c3cnc(N)c(OC)c3)[nH]2)cc1OC [Compound 107, 5-(2-(3,4-dimethoxyphenyl)-4-(pyridin-4-yl)-1H-imidazol-5-yl)-3-methoxypyridin-2-amine] | 0.0007
12 | COc1ccc(-c2nc(-c3ccncc3)c(-c3cnc(N)c(OC)c3)[nH]2)cc1F [Compound 108, 5-(2-(3-fluoro-4-methoxyphenyl)-4-(pyridin-4-yl)-1H-imidazo-5-yl)-3-methoxypyridin-2-amine] | 0.0007
13 | COc1cc(-c2[nH]c(-c3ccc(F)c(F)c3)nc2-c2ccncc2)cnc1N [Compound 109, 5-(2-(3,4-difluorophenyl)-4-(pyridin-4-yl)-1H-imidazol-5-yl)-3-methoxypyridin-2-amine] | 0.0012
14 | COc1cc(-c2[nH]c(-c3cccc(C)c3)nc2-c2ccncc2)cnc1N [Compound 110, 3-methoxy-5-(4-(pyridin-4-yl)-2-tolyl-1H-imidazol-5-yl)pyridin-2-amine] | 0.0005
15 | COc1cc(-c2nc(-c3ccc(F)cc3)[nH]c2-c2ccnc(F)c2)cnc1N [Compound 111, 5-(2-(4-fluorophenyl)-5-(2-fluoropyridin-4-yl)-1H-imidazol-4-yl)-3-methoxypyridin-2-amine] | 0.0292
16 | COc1cc(-c2[nH]c(-c3ccc(F)cc3)nc2-c2cnc(N)c(OC)c2)ccn1 [Compound 112, 5-(2-(4-fluorophenyl)-5-(2-methoxypyridin-4-yl)-1H-imidazol-4-yl)-3-methoxypyridin-2-amine] | 0.737

Row | Compound | IC50 [µM]
17 | COc1cc(-c2nc(C3=CCCCC3)[nH]c2-c2ccncc2)cnc1N [Compound 113, 5-(2-cyclohexenyl-5-(pyridin-4-yl)-1H-imidazol-4-yl)-3-methoxypyridin-2-amine] | 0.0026
18 | COc1cc(-c2[nH]c(-c3ccc(OCCN(C)C)cc3)nc2-c2ccncc2)cnc1N [Compound 114] | 0.0064
19 | COc1cc(-c2[nH]c(-c3cccc(C(C)C)c3)nc2-c2ccncc2)cnc1N [Compound 115, 5-(2-(3-isopropylphenyl)-4-(pyridin-4-yl)-1H-imidazol-5-yl)-3-methoxypyridin-2-amine] | 0.003
20 | COc1cc(-c2[nH]c(-c3cccc(OC)c3F)nc2-c2ccncc2)cnc1N [Compound 116, 5-(2-(2-fluoro-3-methoxyphenyl)-4-(pyridin-4-yl)-1H-imidazol-5-yl)-3-methoxypyridin-2-amine] | 0.0017
21 | COc1cc(-c2[nH]c(-c3ccc(C)c(F)c3)nc2-c2ccncc2)cnc1N [Compound 117, 5-(2-(3-fluoro-4-methylphenyl)-4-(pyridin-4-yl)-1H-imidazol-5-yl)-3-methoxypyridin-2-amine] | 0.0007
22 | COc1cc(-c2nc(C3CCCCC3)[nH]c2-c2ccncc2)cnc1N [Compound 118, 5-(2-cyclohexyl-5-(pyridin-4-yl)-1H-imidazol-4-yl)-3-methoxypyridin-2-amine] | 0.002
23 | COc1cc(-c2nc(-c3ccn(C)n3)[nH]c2-c2ccncc2)cnc1N [Compound 119, 3-methoxy-5-(2-(1-methyl-1H-pyrazol-3-yl)-5-(pyridin-4-yl)-1H-imidazol-4-yl)pyridin-2-amine] | 0.0019
24 | COc1cc(-c2[nH]c(-c3cccc(S(C)(=O)=O)c3)nc2-c2ccncc2)cnc1N [Compound 120, 3-methoxy-5-(2-(3-(methylsulfonyl)phenyl)-4-(pyridin-4-yl)-1H-imidazol-5-yl)pyridin-2-amine] | 0.0088
25 | COc1cc(-c2[nH]c(-c3ccc(S(N)(=O)=O)cc3)nc2-c2ccncc2)cnc1N [Compound 121, 4-(5-(6-amino-5-methoxypyridin-3-yl)-4-(pyridin-4-yl)-1H-imidazol-2-yl)benzenesulfonamide] | 0.0017
26 | COc1cc(-c2[nH]c(-c3cccc(C(N)=O)c3)nc2-c2ccncc2)cnc1N [Compound 122, 3-(5-(6-amino-5-methoxypyridin-3-yl)-4-(pyridin-4-yl)-1H-imidazol-2-yl)benzamide] | 0.0021
27 | COc1cc(-c2[nH]c(-c3cc(C(=O)N(C)C)ccc3F)nc2-c2ccncc2)cnc1N [Compound 124, 3-(5-(6-amino-5-methoxypyridin-3-yl)-4-(pyridin-4-yl)-1H-imidazol-2-yl)-4-fluoro-N,N-dimethylbenzamide] | 0.0166
28 | COc1cc(-c2[nH]c(-c3ccc(C(N)=O)cc3)nc2-c2ccncc2)cnc1N [Compound 126, 4-(5-(6-amino-5-methoxypyridin-3-yl)-4-(pyridin-4-yl)-1H-imidazol-2-yl)benzamide] | 0.0035
29 | COc1cc(-c2nc(C3=CCCC3)[nH]c2-c2ccncc2)cnc1N [Compound 127, 5-(2-cyclopentenyl-5-(pyridin-4-yl)-1H-imidazol-4-yl)-3-methoxypyridin-2-amine] | 0.0018
30 | COc1cc(-c2nc(C(C)(C)C)[nH]c2-c2ccncc2)cnc1N [Compound 128, 5-(2-tert-butyl-5-(pyridin-4-yl)-1H-imidazol-4-yl)-3-methoxypyridin-2-amine] | 0.001
31 | COc1cc(-c2[nH]c(-c3ccc(F)cc3)nc2-c2ccnc3[nH]ccc23)cnc1N [Compound 129, 5-(2-(4-fluorophenyl)-4-(1H-pyrrolo[2,3-b]pyridin-4-yl)-1H-imidazol-5-yl)-3-methoxypyridin-2-amine] | 0.0088
32 | Fc1ccc(-c2nc(-c3ccncc3)c(-c3ccc4ncnn4c3)[nH]2)cc1 [Compound 130, 6-(2-(4-fluorophenyl)-4-(pyridin-4-yl)-1H-imidazol-5-yl)-[1,2,4]triazolo[1,5-a]pyridine] | 0.416
